In patent US5922879A, “N-aminoalkyl-2-anthraquinonecarboxamides: new dopamine receptor subtype specific ligands” (Neurogen Corporation, priority 1997, dated 1999):
Structures can show the parent of a compound that is named as a salt.

Experiments:
D3 receptors = molecular target: T1, D3 receptors (Chlorocebus aethiops, UniProt P52703); assay: D3 receptor binding (displacement of 0.5 nM 3H-YM 09151-2); parameters: species or system African Green monkey; settings: pellets of COS cells with recombinant D3, nonspecific binding with 1 mM spiperone
T1 construct: expressed in transfected cells; host or cells: COS cells
T1 sequence (P52703 whole entry): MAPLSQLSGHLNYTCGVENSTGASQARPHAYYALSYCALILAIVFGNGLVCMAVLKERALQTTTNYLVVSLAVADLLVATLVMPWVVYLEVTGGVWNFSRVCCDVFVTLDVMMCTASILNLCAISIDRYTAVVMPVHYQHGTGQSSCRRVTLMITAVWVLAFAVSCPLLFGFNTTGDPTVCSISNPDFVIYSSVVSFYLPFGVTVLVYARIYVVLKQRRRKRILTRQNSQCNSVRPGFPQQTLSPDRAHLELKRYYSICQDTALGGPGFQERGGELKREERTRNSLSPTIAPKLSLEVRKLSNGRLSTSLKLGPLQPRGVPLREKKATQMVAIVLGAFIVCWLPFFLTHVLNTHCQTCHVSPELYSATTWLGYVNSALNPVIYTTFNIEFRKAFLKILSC
Experimental: (§1) Assay for D2 and D3 Receptor Binding Activity
(§2) Pellets of COS cells containing recombinantly produced D2 or D3 receptors from African Green monkey were used for the assays. The sample is homogenized in 100 volumes (w/vol) of 0.05 M Tris HCl buffer at 4° C. and pH 7.4. The sample is then centrifuged at 30,000 ×g and resuspended and rehomogenized. The sample is then centrifuged as described and the final tissue sample is frozen until use. The tissue is resuspended 1:20 (wt/vol) in 0.05 M Tris HCl buffer containing 100 mM NaCl.
Incubations are carried out at 48° C. and contain 0.4 ml of tissue sample, 0.5 nM ^3 H-YM 09151-2 and the compound of interest in a total incubation of 1.0 ml. Nonspecific binding is defined as that binding found in the presence of […] spiperone; without further additions, nonspecific binding is less than 20% of total binding. The binding characteristics of representative compounds of the invention for D2 and D3 receptor subtypes are shown in Table 2 for rat striatal homogenates.

D2 receptors = assay: D2 receptor binding (displacement of 0.5 nM 3H-YM 09151-2); parameters: species or system African Green monkey; settings: pellets of COS cells with recombinant D2, nonspecific binding with 1 mM spiperone
Experimental: as §1, §2
The binding characteristics of representative compounds of the invention for D2 and D3 receptor subtypes are shown in Table 2 for rat striatal homogenates.

| Ki (D3 receptors) | Ki (D2 receptors) | Molecule |
| --- | --- | --- |
| 4 nM | 154 nM | O=C(NCCCCN1CCN(c2cccc(Cl)c2Cl)CC1)c1ccc2c(c1)C(=O)c1ccccc1C2=O [Compound 1, N-(1-{4-[4-(2,3-Dichlorophenyl)piperazin-1-yl]}butyl)-2anthraquinonecarboxamide hydrochloride] |
| 2 nM | 61 nM | Cc1c(Cl)cccc1N1CCN(CCCCNC(=O)c2ccc3c(c2)C(=O)c2ccccc2C3=O)CC1 [Compound 4, N-(1-{4-[4-(2-Methyl-3-chlorophenyl)piperazin-1-yl]}butyl)-2-anthraquinonecarboxamide hydrochloride] |

| Molecule | Ki (D3 receptors) | Ki (D2 receptors) |
| --- | --- | --- |
| N-(1-{4-[4(8-Quinolinyl)piperazin-1-yl]}butyl)-2-anthraquinonecarboxamide hydrochloride [Compound 6] | – | 45 nM |
